Measured values taken from patent publication US10227357B2, “Compounds and methods for kinase modulation, and indications therefor” (Plexxikon Inc., priority 2012, dated 2019).

Assays:
c-kit kinase = molecular target: T1, c-kit kinase (Homo sapiens, UniProt P10721); experiment: c-Kit biochemical assay, AlphaScreen, 10 μM ATP; settings: c-kit biochemical inhibitory activity; read-out: Biochemical activity (IC50 μM) Kit
T1 construct: The c-kit (or kinase domain thereof) is an active kinase in AlphaScreen; poly-Histidine tag (in-house protein only) (cleaved yes); host or cells: E. coli BL21(DE3)RIL, co-expressed with PTP1B
Method in brief: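 His-tagged c-Kit expressed in E. coli with co-expressed PTP1B (dephosphorylated), tag removed; 0.1 ng per reaction with biotinylated-peptide substrate in 50 mM HEPES pH 7.2, 5 mM MgCl2, 5 mM MnCl2, 5% DMSO, 10 μM ATP, 1 h at room temperature. Phosphorylation detected by AlphaScreen (streptavidin donor, PY20 acceptor beads); IC50 from 8-point 1:3 dilution series.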

c-kit mutant D816V = molecular target: T2, c-kit mutant D816V (Homo sapiens, UniProt P10721, D816V/DEL694-753); experiment: c-Kit mutant D816V biochemical assay, AlphaScreen; settings: c-kit D816V biochemical inhibitory activity; read-out: Biochemical activity (IC50 μM) Kit D816V
T2 construct: residues 551-934, kinase insertion domain residues 694-753 deleted; 6x-histidine (N); made in house; host or cells: E. coli Arctic Express (DE3) RIL (Stratagene)
Method in brief: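 Eight-point, threefold compound series incubated 30 min at room temperature with E. coli-produced D816V kinase, 10 μM ATP, Mg2+/Mn2+ HEPES buffer pH 7.2 and 5% DMSO. After EDTA stop, streptavidin and anti-phosphotyrosine (PY20) AlphaScreen beads gave the read-out, and IC50 was fitted from the concentration–signal curve.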

T1 sequence (P10721 26-976): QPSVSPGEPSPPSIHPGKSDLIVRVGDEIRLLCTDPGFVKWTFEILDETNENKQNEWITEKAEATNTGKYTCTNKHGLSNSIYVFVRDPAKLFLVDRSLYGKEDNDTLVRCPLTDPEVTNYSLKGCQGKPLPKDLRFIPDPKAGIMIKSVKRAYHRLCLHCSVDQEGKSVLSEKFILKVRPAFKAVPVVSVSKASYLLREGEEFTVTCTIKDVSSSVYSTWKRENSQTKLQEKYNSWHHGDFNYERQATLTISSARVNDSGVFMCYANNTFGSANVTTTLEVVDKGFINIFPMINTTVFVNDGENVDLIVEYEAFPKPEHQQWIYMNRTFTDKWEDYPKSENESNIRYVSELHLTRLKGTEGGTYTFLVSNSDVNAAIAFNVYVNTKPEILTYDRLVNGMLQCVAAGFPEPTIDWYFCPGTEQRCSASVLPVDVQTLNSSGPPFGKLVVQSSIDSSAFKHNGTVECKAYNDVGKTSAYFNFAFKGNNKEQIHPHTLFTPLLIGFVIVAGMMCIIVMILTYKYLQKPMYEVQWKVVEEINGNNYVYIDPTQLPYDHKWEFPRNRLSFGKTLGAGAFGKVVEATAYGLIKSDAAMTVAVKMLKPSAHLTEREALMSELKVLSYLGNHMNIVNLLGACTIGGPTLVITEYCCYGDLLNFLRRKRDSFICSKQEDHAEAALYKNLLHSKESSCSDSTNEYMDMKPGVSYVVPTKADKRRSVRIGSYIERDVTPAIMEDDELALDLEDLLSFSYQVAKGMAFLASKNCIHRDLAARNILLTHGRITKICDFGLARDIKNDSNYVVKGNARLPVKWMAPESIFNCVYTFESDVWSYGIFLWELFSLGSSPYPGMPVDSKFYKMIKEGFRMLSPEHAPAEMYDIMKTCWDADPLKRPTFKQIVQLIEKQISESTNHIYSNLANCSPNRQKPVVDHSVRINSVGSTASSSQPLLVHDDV
T2 sequence (P10721 with tags, fused parts or gaps DEL694-753/D816V): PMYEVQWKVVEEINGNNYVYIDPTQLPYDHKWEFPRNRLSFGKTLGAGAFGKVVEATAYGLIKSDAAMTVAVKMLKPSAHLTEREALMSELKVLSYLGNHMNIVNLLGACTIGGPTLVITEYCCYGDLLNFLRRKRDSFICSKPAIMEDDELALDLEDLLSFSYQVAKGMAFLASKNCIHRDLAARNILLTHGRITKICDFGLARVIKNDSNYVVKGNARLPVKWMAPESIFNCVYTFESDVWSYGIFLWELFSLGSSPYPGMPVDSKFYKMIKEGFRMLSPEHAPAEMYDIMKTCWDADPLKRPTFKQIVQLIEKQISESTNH

SMILES | IC50 (c-kit kinase) | IC50 (c-kit mutant D816V)
CS(=O)(=O)Nc1ccc(-c2ncnc3[nH]c(-c4ccc(F)cc4)cc23)cc1 [P-0432, N-[4-[6-(4-fluorophenyl)-7H-pyrrolo[2,3-d]pyrimidin-4-yl]phenyl]methanesulfonamide] | 0.0001 to 1 µM | 0.0001 to 1 µM
Cc1ccc(S(=O)(=O)Nc2ccc(-c3ncnc4[nH]c(-c5ccc(F)cc5)cc34)cc2)cc1 [P-0433, N-[4-[6-(4-fluorophenyl)-7H-pyrrolo[2,3-d]pyrimidin-4-yl]phenyl]-4-methyl-benzenesulfonamide] | 0.0001 to 1 µM | 0.0001 to 1 µM
CCCS(=O)(=O)Nc1cccc(-c2ncnc3[nH]c(-c4ccc(F)cc4)cc23)c1 [P-0434, N-[3-[6-(4-fluorophenyl)-7H-pyrrolo[2,3-d]pyrimidin-4-yl]phenyl]propane-1-sulfonamide] | 1 to 10 µM | 10 to 200 µM
Cc1n[nH]c2ncnc(-c3ccc(NS(=O)(=O)c4ccc(C(F)(F)F)cc4)cc3)c12 [P-0438, N-[4-(3-methyl-1H-pyrazolo[3,4-d]pyrimidin-4-yl)phenyl]-4-(trifluoromethyl)benzenesulfonamide] | 1 to 10 µM | 0.0001 to 1 µM
Cc1n[nH]c2ncnc(-c3ccc(NS(=O)(=O)c4ccc(F)cc4)cc3)c12 [P-0439, 4-fluoro-N-[4-(3-methyl-1H-pyrazolo[3,4-d]pyrimidin-4-yl)phenyl]benzenesulfonamide] | 1 to 10 µM | 0.0001 to 1 µM
Cc1n[nH]c2ncnc(-c3ccc(NS(=O)(=O)c4cccc(F)c4)cc3)c12 [P-0440, 3-fluoro-N-[4-(3-methyl-1H-pyrazolo[3,4-d]pyrimidin-4-yl)phenyl]benzenesulfonamide] | 1 to 10 µM | 0.0001 to 1 µM
Cc1n[nH]c2ncnc(-c3ccc(NS(=O)(=O)c4ccc(C(F)(F)F)nc4)cc3)c12 [P-0441, N-[4-(3-methyl-1H-pyrazolo[3,4-d]pyrimidin-4-yl)phenyl]-6-(trifluoromethyl)pyridine-3-sulfonamide] | 10 to 200 µM | 0.0001 to 1 µM
CCc1ccc(S(=O)(=O)Nc2ccc(-c3ncnc4[nH]nc(C)c34)cc2)cc1 [P-0442, 4-ethyl-N-[4-(3-methyl-1H-pyrazolo[3,4-d]pyrimidin-4-yl)phenyl]benzenesulfonamide] | 1 to 10 µM | 0.0001 to 1 µM
Cc1n[nH]c2ncnc(-c3ccc(NS(=O)(=O)c4cccc(Cl)c4)cc3)c12 [P-0443, 3-chloro-N-[4-(3-methyl-1H-pyrazolo[3,4-d]pyrimidin-4-yl)phenyl]benzenesulfonamide] | 1 to 10 µM | 0.0001 to 1 µM
COc1ccc(S(=O)(=O)Nc2ccc(-c3ncnc4[nH]nc(C)c34)cc2)cc1 [P-0444, 4-methoxy-N-[4-(3-methyl-1H-pyrazolo[3,4-d]pyrimidin-4-yl)phenyl]benzenesulfonamide] | 1 to 10 µM | 0.0001 to 1 µM
Cc1n[nH]c2ncnc(-c3ccc(NS(=O)(=O)c4ccc(Cl)cc4)cc3)c12 [P-0445, 4-chloro-N-[4-(3-methyl-1H-pyrazolo[3,4-d]pyrimidin-4-yl)phenyl]benzenesulfonamide] | 1 to 10 µM | 0.0001 to 1 µM
Cc1ccc(S(=O)(=O)Nc2ccc(-c3ncnc4[nH]nc(C)c34)cc2)cc1 [P-0447, 4-methyl-N-[4-(3-methyl-1H-pyrazolo[3,4-d]pyrimidin-4-yl)phenyl]benzenesulfonamide] | 1 to 10 µM | 0.0001 to 1 µM
Cc1ccc(S(=O)(=O)Nc2ccc(-c3ncnc4[nH]cc(C)c34)cc2)cc1 [P-0448, 4-methyl-N-[4-(5-methyl-7H-pyrrolo[2,3-d]pyrimidin-4-yl)phenyl]benzenesulfonamide] | 1 to 10 µM | 0.0001 to 1 µM
Cc1ccc(S(=O)(=O)Nc2ccc(-c3ncnc4[nH]c(C)c(C)c34)cc2)cc1 [P-0449, N-[4-(5,6-dimethyl-7H-pyrrolo[2,3-d]pyrimidin-4-yl)phenyl]-4-methyl-benzenesulfonamide] | 1 to 10 µM | 1 to 10 µM
Cc1ccc(S(=O)(=O)Nc2ccc(-c3ncnc4[nH]c(C)nc34)cc2)cc1 [P-0450, 4-methyl-N-[4-(8-methyl-9H-purin-6-yl)phenyl]benzenesulfonamide] | 10 to 200 µM | 1 to 10 µM
Cc1ccc(S(=O)(=O)NC2CCN(c3ncnc4[nH]c(-c5cnn(C)c5)cc34)CC2)cc1 [P-0451, 4-methyl-N-[1-[6-(1-methylpyrazol-4-yl)-7H-pyrrolo[2,3-d]pyrimidin-4-yl]-4-piperidyl]benzenesulfonamide] | 1 to 10 µM | 0.0001 to 1 µM

SMILES | IC50 (c-kit kinase) | IC50 (c-kit mutant D816V)
Cn1cc(-c2cc3c(N4CCC(NS(=O)(=O)c5ccc6c(c5)CCC6)CC4)ncnc3[nH]2)cn1 [P-0452, N-[1-[6-(1-methylpyrazol-4-yl)-7H-pyrrolo[2,3-d]pyrimidin-4-yl]-4-piperidyl]indane-5-sulfonamide] | 1 to 10 µM | 0.0001 to 1 µM
Cc1ccc(S(=O)(=O)NC2CCN(c3ncnc4[nH]c(-c5cnn(C)c5)cc34)CC2)s1 [P-0454, 5-methyl-N-[1-[6-(1-methylpyrazol-4-yl)-7H-pyrrolo[2,3-d]pyrimidin-4-yl]-4-piperidyl]thiophene-2-sulfonamide] | 10 to 200 µM | 0.0001 to 1 µM
Cc1ccc2sc(S(=O)(=O)NC3CCN(c4ncnc5[nH]c(-c6cnn(C)c6)cc45)CC3)cc2c1 [P-0455, 5-methyl-N-[1-[6-(1-methylpyrazol-4-yl)-7H-pyrrolo[2,3-d]pyrimidin-4-yl]-4-piperidyl]benzothiophene-2-sulfonamide] | 1 to 10 µM | 0.0001 to 1 µM
Cn1cc(-c2cc3c(N4CCC(NS(=O)(=O)c5ccc6c(c5)CCO6)CC4)ncnc3[nH]2)cn1 [P-0457, N-[1-[6-(1-methylpyrazol-4-yl)-7H-pyrrolo[2,3-d]pyrimidin-4-yl]-4-piperidyl]-2,3-dihydrobenzofuran-5-sulfonamide] | 10 to 200 µM | 0.0001 to 1 µM
Cn1cc(-c2cc3c(N4CCC(NS(=O)(=O)c5ccc(Cl)s5)CC4)ncnc3[nH]2)cn1 [P-0458, 5-chloro-N-[1-[6-(1-methylpyrazol-4-yl)-7H-pyrrolo[2,3-d]pyrimidin-4-yl]-4-piperidyl]thiophene-2-sulfonamide] | 10 to 200 µM | 0.0001 to 1 µM
COc1cc(-c2cc3c(N4CCC(NS(=O)(=O)c5ccc(OC(F)(F)F)cc5)CC4)ncnc3[nH]2)ccn1 [P-0460, N-[1-[6-(2-methoxy-4-pyridyl)-7H-pyrrolo[2,3-d]pyrimidin-4-yl]-4-piperidyl]-4-(trifluoromethoxy)benzenesulfonamide] | 10 to 200 µM | 10 to 200 µM
Cn1cc(-c2cc3c(N4CCC(NS(=O)(=O)c5cc(Cl)c(Cl)s5)CC4)ncnc3[nH]2)cn1 [P-0461, 4,5-dichloro-N-[1-[6-(1-methylpyrazol-4-yl)-7H-pyrrolo[2,3-d]pyrimidin-4-yl]-4-piperidyl]thiophene-2-sulfonamide] | 1 to 10 µM | 0.0001 to 1 µM
Cn1cc(-c2cc3c(N4CCC(NS(=O)(=O)c5cc(Cl)cs5)CC4)ncnc3[nH]2)cn1 [P-0462, 4-chloro-N-[1-[6-(1-methylpyrazol-4-yl)-7H-pyrrolo[2,3-d]pyrimidin-4-yl]-4-piperidyl]thiophene-2-sulfonamide] | 1 to 10 µM | 0.0001 to 1 µM
COc1ncc(-c2cc3c(N4CCC(NS(=O)(=O)c5ccc(OC(F)(F)F)cc5)CC4)ncnc3[nH]2)cn1 [P-0465, N-[1-[6-(2-methoxypyrimidin-5-yl)-7H-pyrrolo[2,3-d]pyrimidin-4-yl]-4-piperidyl]-4-(trifluoromethoxy)benzenesulfonamide] | 10 to 200 µM | 10 to 200 µM
Cn1cc(-c2cc3c(N4CCC(NS(=O)(=O)c5cc6ccccc6s5)CC4)ncnc3[nH]2)cn1 [P-0470, N-[1-[6-(1-methylpyrazol-4-yl)-7H-pyrrolo[2,3-d]pyrimidin-4-yl]-4-piperidyl]benzothiophene-2-sulfonamide] | 0.0001 to 1 µM | 0.0001 to 1 µM
Cn1cc(-c2cc3c(N4CCC(NS(=O)(=O)c5ccc(C6(C#N)CC6)cc5)CC4)ncnc3[nH]2)cn1 [P-0486, 4-(1-cyanocyclopropyl)-N-[1-[6-(1-methylpyrazol-4-yl)-7H-pyrrolo[2,3-d]pyrimidin-4-yl]-4-piperidyl]benzenesulfonamide] | 1 to 10 µM | 1 to 10 µM
CC(C)Oc1ccc(S(=O)(=O)NC2CCN(c3ncnc4[nH]c(-c5cnn(C)c5)cc34)CC2)cc1 [P-0488, 4-isopropoxy-N-[1-[6-(1-methylpyrazol-4-yl)-7H-pyrrolo[2,3-d]pyrimidin-4-yl]-4-piperidyl]benzenesulfonamide] | 0.0001 to 1 µM | 0.0001 to 1 µM
Cn1cc(-c2cc3c(N4CCC(NS(=O)(=O)c5ccc(Cl)cc5)CC4)ncnc3[nH]2)cn1 [P-0491, 4-chloro-N-[1-[6-(1-methylpyrazol-4-yl)-7H-pyrrolo[2,3-d]pyrimidin-4-yl]-4-piperidyl]benzenesulfonamide] | 1 to 10 µM | 0.0001 to 1 µM
Cc1nc(-c2cccc(NC(=O)NC3CCN(c4ncnc5[nH]ccc45)CC3)c2)no1 [P-0507, 1-[3-(5-methyl-1,2,4-oxadiazol-3-yl)phenyl]-3-[1-(7H-pyrrolo[2,3-d]pyrimidin-4-yl)-4-piperidyl]urea] | 10 to 200 µM | 10 to 200 µM
O=C(Nc1cccnc1)NC1CCN(c2ncnc3[nH]ccc23)CC1 [P-0508, 1-(3-pyridyl)-3-[1-(7H-pyrrolo[2,3-d]pyrimidin-4-yl)-4-piperidyl]urea] | 10 to 200 µM | 10 to 200 µM
